According to article PMC7180617, “Biological Evaluation of 3-Benzylidenechromanones and Their Spiropyrazolines-Based Analogues” (Molecules, 2020):
Several values for one entry are separate records, joined by “and”; a condition that tells them apart may be missing. Identical values can stand only once.

Key:
WM-115 cells = assay: MTT cytotoxicity assay, WM-115; assay type: cell-based, human; conditions: 46 h + 2 h incubation
Protocol: (§1) The first stage of the study used the MTT viability test to determine the cytotoxicity of ten compounds, i.e., 3-arylidenechromanone, 3-arylideneflavanone, spirochromanone and spiro- flavanone analogues, against four human cancer cell lines: HL-60, NALM-6, WM-115 and COLO-205.
(§2) Cytotoxicity was tested against human skin melanoma cells (WM-115, ECACC, Salisbury, UK), two human leukemia cell lines, viz. promyelocytic leukemia (HL-60) and lymphoblastic leukemia (NALM-6), and human colon adenocarcinoma cells (COLO-205). The cell lines COLO-205, WM-115 and HL-60 used in this work came from the ATCC American Type Culture Collection (Manassas, VA, USA), whereas the NALM-6 cell line was purchased from the German Collection of Microorganisms and Cell Cultures (Braunschweig, Germany). The leukaemia cells and colon adenocarcinoma were cultured in RPMI 1640 medium (Invitrogen, Grand Island, NY, USA) supplemented with 10% fetal bovine serum (FBS; Invitrogen) and gentamicin (25 µg/mL; KRKA, Novo Mesto, Slovenia). For melanoma WM-115 cells, Dulbecco’s minimal essential medium (DMEM; Invitrogen) was used. All cell lines were cultured at 37 °C in a humidified atmosphere of 5% CO2 in air.
(§3) For all experiments, the studied compounds were dissolved in DMSO (Sigma-Aldrich) and were further diluted in culture medium to obtain <0.1% DMSO concentration. In each experiment, controls with and without 0.1% DMSO were performed. The cytotoxicity of all compounds and of the reference compounds 4-chromanone and 3-benzylideneflavanone was determined by the MTT assay, i.e., 3-(4,5-dimethylthiazol-2-yl)-2,5-diphenyltetrazolium bromide (Sigma, St. Louis, MO, USA), which measures cellular dehydrogenase activity. Exponentially growing cells were seeded a day before the experiment onto a 96-well microplates (Nunc, Roskilde, Denmark) at a density up to 6–8 × 10^3 cells/well (depending on the cell line). Subsequently, various concentrations of the studied compounds freshly prepared in DMSO and diluted with complete culture medium were added. All compounds were tested for their cytotoxicity at a final concentration of 10^−7–10^−3 M. After 46 h of incubation with the studied compounds, the cells were treated with the MTT reagent and incubation was continued for another two hours. MTT – formazan crystals were dissolved in 20% sodium dodecyl sulphate (SDS, Sigma-Aldrich) and 50% DMF (Sigma-Aldrich) at pH 4.7; following this, absorbance was read at 570 nm on a multifunctional Victor ELISA-plate reader (Perkin Elmer, Turku, Finland). The IC50 values, i.e., the concentration of the test compound required to reduce the cell survival fraction to 50% of controls, were calculated from concentration-response curves and used as a measure of the sensitivity of the cells to a given treatment. As a control, cultured cells were grown in the absence of drugs. The data points represent the means of at least five to ten repeats ± standard deviation (S.D.).

HL-60 cells [1] = assay: MTT cytotoxicity assay, HL-60; assay type: cell-based, human; conditions: MTT, 46 h + 2 h incubation
Protocol: as §1, §2, §3

NALM-6 cells = assay: MTT cytotoxicity assay, NALM-6; assay type: cell-based, human; conditions: 46 h + 2 h incubation
Protocol: as §1, §2, §3

COLO-205 cells = assay: MTT cytotoxicity assay, COLO-205; assay type: cell-based, human; conditions: 46 h + 2 h incubation
Protocol: as §1, §2, §3

HL-60 cells [2] = assay: Cell cycle analysis by flow cytometry (propidium iodide); assay type: cell-based, human; conditions: for cell cycle, G1, mean / cell cycle, G2/M, mean / cell cycle, S, mean: mean of n=2; for cell cycle distribution, G1 / cell cycle distribution, G2 / cell cycle distribution, G2/M: HL-60, 20 h, mean ± SD, n = 2
Protocol: The next stage examined the effects of the selected compounds on cell cycle progression in HL-60 leukemia cells. […] One million HL-60 (subline CCL 240; cell type: promyeloblast) cells in 3 mL of RPMI 1640 supplemented with 20% FBS were seeded on 6-well plate. […] Fixed cells were stored in −20 °C for 2–3 days. Before analysis, cells were centrifuged (10 min, 1500 rpm, 4 °C) and washed twice with cold PBS. After the second wash, the cells were suspended in 1mL of PBS containing 100 μg of RNase A and incubated in 37 °C for 10 min. Next, 5 μL of solution of propidium iodide (1 mg/mL) was added to each sample and incubated in dark for 30 min at RT. Stained cells were analyzed by flow cytometry (FACS Calibur, BD Biosciences, San Jose, CA, USA). Data from 10,000 gated cells were collected using CellQuestPro software (Ver 6.0, Becton Dickinson) and cell cycle analysis was performed with ModFit LT software (Ver 3.2, Verity Software House, Topsham, ME, USA).

erythrocytes = assay: Red blood cell morphology (phase-contrast microscopy); assay type: cell-based; conditions: 2% erythrocyte suspension, 37 °C, 1 h, phase contrast 400×
Protocol: Studies on erythrocyte morphology complement the erythrotoxicity studies because they provide information on potential immediate interactions of the tested compounds with the erythrocyte lipid bilayer, and the possibility of creating pathological forms of erythrocytes, which are not able to carry oxygen. The effects of the synthesized compounds, and the two reference compounds chromanone and flavanone, on the morphology of erythrocytes is shown in Figure 6. Briefly, 2% RBC suspension was incubated with 0.9% NaCl (control samples) or tested compounds at various concentrations corresponding to their activity towards cancer cell lines.
A 2% erythrocyte suspension was incubated at 37 °C for one hour with various concentrations of synthesized compounds. The morphology of the RBCs was examined by means of a phase contrast Opta-Tech inverted microscope, at 400× magnification, equipped with software (OptaView 7) for image analysis.

[3] = Lipophilicity (logP) by RP-TLC; conditions: for chromatographic logP: RP-18 F254S TLC plates
Description: Lipophilicity is one of the most important physicochemical properties in pharmaceutical research. It can be considered a key determinant of the pharmacokinetic properties of a drug. It is commonly measured by the partition coefficient between water and n-octanol, being expressed as logP [14]. […] Knowledge of the partition coefficient is valuable: it is frequently used in structure–activity relationship (SAR) and quantitative structure–activity relationship (QSAR) studies. The experimental lipophilicity of the synthesized compounds, viz. benzylideneflavanones, benzylidenechromanones and spiropyrazolines, was determined using RP-TLC. […] It is important to examine the relationship between structure of the compound and its lipophilicity and cytotoxicity.
The RP-TLC experiments were performed on TLC plates (5 × 10 cm) RP-18 F254S (Merck, Darmstadt, Germany). The synthesized compounds were dissolved in N,N-dimethylformamide DMF (2 mg/mL). […] A DMF-water solvent system was used as mobile phase. […] All experiments were performed at room temperature. The logP parameter was calculated using the equation from the calibration curve.

[4] = Figure S3, HL-60, 0.5 × IC50 (µM: quercetin 29, 1 1.5, 7 18, 10 4.7, 11 4.5, 12 6)
[5] = Figure S3, HL-60, 0.5 × IC50, each of two repetitions
[6] = Figure S3, HL-60, 1 × IC50 (µM in parenthesis: quercetin 58, 1 3, 7 35, 10 9.4, 11 9, 12 12)
[7] = Figure S3, HL-60, 1 × IC50 (µM: quercetin 58, 1 3, 7 35, 10 9.4, 11 9, 12 12)
[8] = Figure S3, HL-60, 1 × IC50, each of two repetitions
[9] = 0.5 × IC50 (µM: quercetin 29, 2 1.5, 7 18, 12 6, 11 4.5, 10 4.7)
[10] = 1 × IC50 (µM: quercetin 58, 2 3, 7 35, 12 12, 11 9, 10 9.4)
[11] = Homo sapiens, WM-115, 48 h, MTT
[12] = Homo sapiens, NALM-6, 48 h, MTT

SMILES	IC50 (WM-115 cells; MTT) [µM]	IC50 (HL-60 cells [1]) [µM]	IC50 (NALM-6 cells; MTT) [µM]	IC50 (COLO-205 cells) [µM]	IC50 (HL-60 cells [1]; Homo sapiens, HL-60, 48 h) [µM]	cell cycle, G1, mean (HL-60 cells [2]; [4])	cell cycle, G2/M, mean (HL-60 cells [2]; [4])	cell cycle, S, mean (HL-60 cells [2]; [4])	cell cycle, G2/M, single repetitions (HL-60 cells [2]; [5])	cell cycle, S, single repetitions (HL-60 cells [2]; [5])	cell cycle, G1, mean (HL-60 cells [2]; [6])	cell cycle, G2/M, mean (HL-60 cells [2]; [7])	cell cycle, S, mean (HL-60 cells [2]; [7])	cell cycle, G2/M, single repetitions (HL-60 cells [2]; [8])	cell cycle, S, single repetitions (HL-60 cells [2]; [8])	erythrocyte morphology (in words) (erythrocytes)	IC50 (WM-115 cells; [11]) [µM]	IC50 (NALM-6 cells; [12]) [µM]	chromatographic logP [3]	IC50 (COLO-205 cells; Homo sapiens, COLO 205, 48 h) [µM]	also measured
N.N.[Cl][Pt][Cl] [Cisplatin, reference compound]	18.2 ± 4.3	0.8 ± 0.1	0.7 ± 0.3	61.5 ± 3.2	–	–	–	–	–	–	–	–	–	–	–	–	–	–	–	–	–
O=c1c(O)c(-c2ccc(O)c(O)c2)oc2cc(O)cc(O)c12 [Quercetin, reference compound]	–	–	–	–	58 ± 4	14,26%	60,76%	24,99%	60,50% and 61,01%	23,57% and 26,40%	11,59%	49,04%	39,38%	46,07% and 52,00%	41,15% and 37,60%	–	–	–	–	–	IC50 (WM-115 cells; Homo sapiens, WM-115, MTT): 178 ± 21.5 µM; IC50 (NALM-6 cells; Homo sapiens, NALM-6, MTT): 77.1 ± 7.8 µM; cell cycle, G1, single repetitions (HL-60 cells [2]; [5]): 12,59% and 15,93%; cell cycle, G1, single repetitions (HL-60 cells [2]; [8]): 12,78% and 10,40%; cell cycle distribution, G1 (HL-60 cells [2]; [9]): 14.3 ± 2.4%; cell cycle distribution, G2 (HL-60 cells [2]; [9]): 25.0 ± 2.0%; cell cycle distribution, G2/M (HL-60 cells [2]; [9]): 60.8 ± 0.4%; cell cycle distribution, G1 (HL-60 cells [2]; [10]): 11.6 ± 1.7%; cell cycle distribution, G2 (HL-60 cells [2]; [10]): 39.4 ± 2.5%; cell cycle distribution, G2/M (HL-60 cells [2]; [10]): 49.0 ± 4.2%; cells arrested in G2/M phase (HL-60 cells [2]; HL-60, concentrations of IC50 and 0.5 × IC50): 50–60%
COc1ccc(/C=C2/C(=O)c3ccccc3OC2c2ccccc2)cc1 (centres unmarked) [Compound 1, (E)-3-(4-methoxybenzylidene)-2-phenylchroman-4-one]	–	–	–	–	53.4 ± 2.49	23,52%	53,45%	23,04%	39,74% and 67,16%	21,38% and 24,69%	21,31%	53,71%	25,02%	68,86% and 38,56%	17,63% and 32,40%	extensive formation of echinocytes and anisocytes	58.1 ± 4.93	49.8 ± 2.35	4.79	51 ± 2.3	–
COc1cccc(/C=C2/C(=O)c3ccccc3OC2c2ccccc2)c1 (centres unmarked) [Compound 9, (E)-3-(3-methoxybenzylidene)-2-phenylchroman-4-one]	–	–	–	–	35.9 ± 2.96	–	–	–	–	–	–	–	–	–	–	echinocytes accounted for the major part of erythrocytes	16.9 ± 3.78	15.7 ± 6.23	5.83	170 ± 3.81	–
N.N.O=C([O-])C1(C(=O)[O-])CCC1.[Pt+2] [Carboplatin, reference compound]	422 ± 50.2	4.3 ± 1.3	0.7 ± 0.2	355 ± 73.7	–	–	–	–	–	–	–	–	–	–	–	–	–	–	–	–	logP ([3]; RP-TLC, DMF-water mobile phase, room temperature): −2.30
O=C1/C(=C/c2ccccc2)C(c2ccccc2)Oc2ccccc21 (centres unmarked) [Compound 5, (E)-3-benzylidene-2-phenylchroman-4-one]	–	–	–	–	33.7 ± 3.87	–	–	–	–	–	–	–	–	–	–	echinocytes accounted for the major part of erythrocytes	47.4 ± 4.62	27 ± 3.1	4.9	77.1 ± 1.9	–
